In patent US6114537A, “Process for scavenging thiols” (Apotex Inc., priority 1997, dated 2000):

Legend:
Gastric Acid Secretions [1] = experiment: Effects on gastric acid secretion in rats, dose-dependent study (histamine-stimulated); format: in vivo, Sprague-Dawley rats; conditions: 3, 30, 300 μmol/kg doses, oral, anesthetized rats; histamine 5 mg/kg i.v.
Description: Effects of compounds of Formula I on Gastric Acid Secretions in Rats (Dose-dependent study)
Fasted, adult (140-240 g), male, Sprague-Dawley rats were fasted for 24 h from food, but not water, and then treated by oral gavage with 1 to 1.5 mL total volume of 4 different doses (0.3, 3, 30, and 300 μmol/kg) of each compound on different days. Two hours later, rats were anesthetized with a combination of pentobartital and thiopental, the abdomen was opened and the pylorus was ligated, and tracheal, gastric, and peripheral venous canulas were placed. The stomachs were lavaged with 10 mL 0.9% saline every 10 min. for 30 min and the gastric effluent collected in receptacles. Acid output was determined in each gastric effluent sample by back-titration to pH 7.0 using 0.02M NaOH. Then, 5 mL of an […] meal (pH 5.5) was instilled into the stomachs, mixed, and drained after 10 min each time for 2 hours. Acid output was determined in each gastric effluent sample by back-titration to pH 7.0 using 0.02 M NaOH. After measuring basal acid output for at least 30 minutes, acid output was then measured during a 2 h intravenous infusion of histamine (5 mg/kg).

[2] = Acid stability in 6 molar hydrochloric acid; format: physicochemical; conditions: room temperature
Description: Acid stability of 7-methoxy-3-[(4-methoxy-3,5-dimethyl-2-pyridyl)oxomethyl]-1,2,4-thiadiazolo[4,5-a]benzimidazole.
To examine acid stability of the captioned compound, the compound was dissolved in a minimum volume of methanol and the resulting solution was added to a 6 molar solution of hydrochloric acid.

Gastric Acid Secretions [3] = experiment: Effects on (meal-stimulated) gastric acid secretion in rats; format: in vivo, Sprague-Dawley rats
Description: Effects of compounds of Formula I on Gastric Acid Secretions in Rats
Fasted, adult (140-240 g), male, Sprague-Dawley rats were fasted for 24 h from food, but not water, and then treated by oral gavage with 1 to 1.5 mL total volume of compound of Formula I (300 μmmol/Kg) on different days. Two hours later, rats were anesthetized with a combination of pentobartital and thiopental, the abdomen was opened and the pylorus was ligated, and tracheal, gastric, and peripheral venous canulas were placed. The stomachs were lavaged with 10 mL 0.9% saline every 10 min. for 30 min and the gastric effluent collected in receptacles to determine the basal acid secretion. Acid output was determined in each gastric effluent sample by back-titration to pH 7.0 using 0.02M NaOH. Then, 5 mL of an 8% peptone meal (pH 5.5) was instilled into the stomachs, mixed, and drained after 10 min each time for 2 hours. Acid output was determined in each gastric effluent containing the peptone meal by back-titration to pH 5.5 using 0.02 M NaOH.

Solubility in water = format: physicochemical

- recovery after stirring in acid ([2]; 48 hours): totally recovered
- acid stability [2]: very stable in acid
- solubility in water (Solubility in water): limited solubility in water
Compound: COc1ccc2c(c1)nc1snc(C(=O)c3ncc(C)c(OC)c3C)n12 [7-methoxy-3-[(4-methoxy-3,5-dimethyl-2-pyridyl)oxomethyl]-1,2,4-thiadiazolo[4,5-a]benzimidazole]
- inhibition of histamine-stimulated acid secretion (Gastric Acid Secretions [1]): significant (p<0.05) inhibition
- inhibition of meal-stimulated acid secretion (Gastric Acid Secretions [3]; 300 μmmol/Kg, rats, oral): significant (p<0.05) inhibition
- level of acid output, peptone stimulated (Gastric Acid Secretions [3]; after 1 h, oral gavage, rats, 300 μmmol/Kg, vehicle 160 numol/30 min): 20 μmmol/30 min
- suppression of gastric acid secretion in animal model (Gastric Acid Secretions [3]; animal model): active in the suppression of gastric acid secretion
